Experiments:
U251 glioblastoma cells [1] = experiment: Sulforhodamine B (SRB) growth inhibition assay; assay type: cell-based, human; settings: U251; 48 h SRB; Table 1, Table 2 (FIG. 64), FIG. 63
Method: Cells experiencing methuosis initially undergo extreme cytoplasmic vacuolization which can be readily assessed by phase contrast microscopy. As viability is compromised (usually between 24-48 h), the cells detach from the culture surface and lose membrane integrity. […] Although methuosis can occur in a broad spectrum of human tumor cell lines, SAR studies were carried out with U251 glioblastoma cells. Therefore, this cell line was used in the present evaluation.
Total protein in adherent cells was measured by the sulforhodamine B (SRB) colorimetric assay, following standard procedures for anticancer drug screening used by the U.S. National Cancer Institute. […] On the day after plating, four wells were assayed to establish a pre-drug (time-0) baseline. Test compounds were diluted as described above and added to the remaining wells. The medium and compounds were replenished after 24 hr. SRB assays were performed at a 48 h endpoint as described, using a SpectraMax Plus 384 plate reader (Molecular Devices, Sunnyvale, Calif.) to determine absorbance at 515 nm.
Cells were seeded in 96-well plates as described in the methods. After 24 h, each compound was added at the indicated concentrations and SRB assays were performed after an additional 48 h. Each point represents the mean±SD of values from four wells. The dotted line on each graph indicates the average absorbance of four wells sampled at time-0 (i.e., the time that the compounds were added).
The human U251 glioblastoma cell line was obtained from the DCT Tumor Repository (National Cancer Institute, Fredrick, Md.). […] All test compounds were dissolved in DMSO and serially diluted in DMSO so that the desired final drug concentrations could be achieved by making a 1/1000 dilution into the culture medium. One day after plating, four wells were assayed to establish a pre-drug (time-0) baseline. At the same time, fresh medium containing test compounds was added to the remaining wells. Control wells received DMSO alone. SRB assays were performed at a 48 h endpoint. To minimize the impact of potential variations in stability among the compounds, medium with test compound was replenished after the first 24 h.

U251 glioblastoma cells [2] = experiment: Cell morphology / vacuolization by phase-contrast microscopy; assay type: cell-based, human; settings: concentration not singled out ([…] and 10 μM or as in figure)
U251 glioblastoma cells [3] = experiment: Classification by cellular phenotype induced in cultured cells; assay type: cell-based, human; settings: FIG. 72
U251 glioblastoma cells [4] = experiment: Cell cycle analysis by flow cytometry (DNA histograms); assay type: cell-based, human; settings: 24 h, 3 μM (FIGS. 69A-69B)
[5] = Stability on storage in DMSO (1H NMR); assay type: physicochemical
Source text: Derivatives substituted with hydroxyl-functionality were synthesized based upon the results obtained in previous SAR studies for 2-substituted indole. Subtle chemical modifications at this position can alter activity, and are sensitive to both steric and electronic properties. […] Previously prepared intermediate ethyl 5-methoxyindole-2-carboxylate (302) was reduced by LAH to 425, which was then protected by acetylating the primary hydroxyl group (426). The acetyl group was then hydrolyzed during the alkaline conditions used to quench the acidic reagents generated during Vilsmeier's step that produce aldehyde 427. […] Alcohol 425 was oxidized to 5-methoxyindole-2-carboxaldehyde (428) by MnO2 in EtOAc heated to reflux. The aldehyde was subjected toWittig conditions using phosphonium ylide (Ph3CHCO2C2H5) to produce the α,β-unsaturated ester 429, which was reduced to 2-hydroxypropylindole 430 using excess LAH. The primary hydroxyl group was protected as the O-acetate (431) under conditions of excess acetic anhydride, TEA and CH3CN. […] As anticipated, the O-acetyl group was hydrolyzed under these conditions.
5-Methoxy-2-hydroxymethylindole-3-carboxaldehyde 427 (75 mg, 0.37 mmol), 4-acetylpyridine (118 mg, […]), and piperidine (82.6 mg, […]) were dissolved in methanol (1 mL) and heated to reflux. The reaction mixture was stirred for 45 min during which the solution became bright orange. The flask was then removed from heat and allowed to stir for 1 h. A precipitate formed which was collected, washed with ice-cold MeOH (5 mL) and dried in a vacuum desiccator for 24 h to yield an orange solid (28 mg, 24%). mp 229-230° C. TLC Rf 0.65 (6% MeOH/DCM), 0.21 (80% EtOAc/hexanes). […] 13C NMR (150 MHz, d6-DMSO) δ 188.2, 155.2, 150.6, 148.0, 145.0, 139.3, 131.0, 126.7, 121.4, 113.8, 113.0, 111.6, 108.3, 103.4, 55.57, 55.32. Elemental analysis calculated for C18H16N2O3.0.033 MeOH: C, 70.00; H, 5.26; N, 9.05. Found: C, 69.61; H, 5.09; N, 8.90. […] When stored in its isolated precipitate form, this compound is stable.

U251 glioblastoma cells [6] = experiment: Effect of filipin, bafilomycin A1 or EHT 1864 on MIPP-induced vacuoles; assay type: cell-based, human; settings: 10 μM MIPP with 12 μg/ml filipin, 0.1 μM bafilomycin A1 or 25 μM EHT 1864
Method: To inhibit clathrin-independent endocytosis, U251 cells were washed twice with serum-free DMEM, then pretreated for 30 min with DMEM+0.5% BSA in the presence or absence of 12 μg/ml filipin. Following the pretreatment, MIPP was added to the dishes at a final concentration of 10 μM and phase-contrast images were acquired 100 min later. To inhibit the vacuolar-type H^+ ATPase, U251 cells were pretreated for 1 h with 0.1 μM bafilomycin A1 or an equivalent volume of DMSO. At the end of the hour, 10 μM MIPP, or an equivalent volume of DMSO, was added without a medium change. Phase-contrast images of the cells were acquired 1 h after the addition of MIPP. […] The percentage of vacuolated cells in the population was determined by scoring at least 100 cells in multiple phase-contrast photomicrographs for each condition. Cells containing three or more phase-lucent vacuoles with diameters ≧0.5 μm or >10 smaller vacuoles (0.1-0.5 μm) were scored as positive. For comparison, the effect of EHT 1864 on Ras-induced vacuolization was also determined. […] After 24 h, phase-contrast images were taken and the number of vacuolated cells was scored as described above.

porcine tubulin = target: T1, porcine tubulin (Sus scrofa, UniProt P02550+P02554); experiment: Cell-free fluorescence-based tubulin polymerization assay; assay type: biochemical; settings: final concentration 3 μM (FIG. 61)
T1 construct: purchased Cytoskeleton, Inc. BK011P
T1 sequence (P02550 whole entry): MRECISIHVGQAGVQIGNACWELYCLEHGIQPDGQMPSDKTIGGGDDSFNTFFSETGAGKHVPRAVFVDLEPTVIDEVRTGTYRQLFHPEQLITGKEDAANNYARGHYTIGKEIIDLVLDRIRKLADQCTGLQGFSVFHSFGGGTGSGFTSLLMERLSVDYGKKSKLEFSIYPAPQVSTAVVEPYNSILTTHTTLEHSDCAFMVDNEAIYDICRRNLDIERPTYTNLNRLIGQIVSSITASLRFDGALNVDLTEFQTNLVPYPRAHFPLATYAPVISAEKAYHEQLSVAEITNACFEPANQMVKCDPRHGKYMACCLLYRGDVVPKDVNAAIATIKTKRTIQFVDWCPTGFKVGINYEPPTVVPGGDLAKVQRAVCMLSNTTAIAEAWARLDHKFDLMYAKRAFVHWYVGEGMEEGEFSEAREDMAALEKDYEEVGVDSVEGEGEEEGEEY
T1 sequence (P02554 whole entry): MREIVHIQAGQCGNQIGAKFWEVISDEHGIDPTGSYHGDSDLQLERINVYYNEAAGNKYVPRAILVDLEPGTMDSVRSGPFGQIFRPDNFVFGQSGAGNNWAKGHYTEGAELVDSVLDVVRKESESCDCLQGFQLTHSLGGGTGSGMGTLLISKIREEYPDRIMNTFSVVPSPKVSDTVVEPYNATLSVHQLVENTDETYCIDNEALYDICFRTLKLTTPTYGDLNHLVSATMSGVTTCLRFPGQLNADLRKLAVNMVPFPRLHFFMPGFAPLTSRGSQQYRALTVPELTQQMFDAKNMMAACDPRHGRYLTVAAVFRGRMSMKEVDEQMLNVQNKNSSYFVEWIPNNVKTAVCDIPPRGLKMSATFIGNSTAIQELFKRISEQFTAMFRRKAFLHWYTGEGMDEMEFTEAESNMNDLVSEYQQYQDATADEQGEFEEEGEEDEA

[7] = Stability during workup, manipulation or storage; assay type: physicochemical; settings: among ester series 120, 125, 310, 309
Method: Expanding previous SAR studies of 2-indolyl alkyl substitutions, additional functionalized probes were prepared as depicted in Schemes 4-7. […] Excellent regioselectivity was achieved by the di-lithio species derived from 418 and sec-butyllithium in THF at −40° C. Cyclization and deprotection occurred in a one-pot fashion with excess TFA affording 5-methoxy-2-trifluoromethylindole (203). Synthesis of aldehyde 204 and condensation to the final trifluoromethyl target 124 were accomplished by standard methods. Alkyl carboxylates (301-304) were synthesized from commercially available acid 300 by Fisher esterification conditions using their corresponding alcohols (Scheme 4E, FIG. 78). Formylation reactions to yield aldehydes 305-308, followed by Claisen-Schmidt condensation to provide 120, 125, 310, 309, were conducted as previously described. […] Without wishing to be bound by theory, it is believed this is owing to its better leaving group among this series.

## 3-(2-hydroxypropyl-5-methoxy-indole-3-yl)-1-(4-pyridinyl)-2-propen-1-one [402q]
U251 glioblastoma cells [1]
  growth inhibitory (GI) activity, in words: GI values in the low micromolar range
U251 glioblastoma cells [2]
  cell morphology / vacuolization: extensive accumulation of large cytoplasmic vacuoles, with loss of viable adherent cells at concentrations >2.5 μM
U251 glioblastoma cells [3]
  class of cellular phenotype: Class 2

## COc1ccc2[nH]c(C(=O)[O-])c(/C=C/C(=O)c3ccncc3)c2c1.[Na+] [402o, sodium trans-3-(5-methoxyindol-2-carboxylate-3-yl)-1-(4-pyridinyl)-2-propen-1-one]
U251 glioblastoma cells [1]
  growth inhibitory (GI) activity, in words: either markedly attenuated or completely eliminated
U251 glioblastoma cells [4]
  cell cycle distribution (G2/M, sub-G1/G0): no detectable effect on cell cycle distribution

## COc1ccc2[nH]c(CO)c(C=CC(=O)c3ccncc3)c2c1 [402p, 3-(2-hydroxymethyl-5-methoxy-1H-indole-3-yl)-1-(4-pyridinyl)-2-propen-1-one]
[5]; storage in DMSO
  stability in DMSO, in words: unstable when stored at rt in DMSO for 48 h
[5]; stored in d6-DMSO, after 48 h, 1H NMR
  degraded: ~50%
[5]; stored in its isolated precipitate form
  stability as isolated precipitate: stable

## CO/C1=C\C(C)=C\[C@@H](C)[C@@H](O)[C@@H](C)C/C(C)=C/C=C/[C@H](OC)[C@@H]([C@@H](C)[C@@H](O)[C@H](C)[C@@]2(O)C[C@@H](O)[C@H](C)[C@@H](C(C)C)O2)OC1=O [Baf-A, bafilomycin A1]
U251 glioblastoma cells [6]
  effect on induction of vacuoles by MIPP: completely abrogated the ability of the cells to generate vacuoles when they were exposed to MIPP

## O=c1cc(CN2CCOCC2)occ1OCCCCCSc1ccnc2cc(C(F)(F)F)ccc12 [EHT 1864]
U251 glioblastoma cells [6]
  effect on induction of vacuoles by MIPP: no detectable effect on vacuole formation

## COc1ccc2[nH]c(C)c(/C=C/C(=O)c3ccncc3)c2c1 [MOMIPP, trans-3-(5-methoxy-2-methyl-1H-indol-3-yl)-1-(4-pyridinyl)-2-propen-1-one]
Porcine tubulin
  inhibition of tubulin polymerization: superimposable with the DMSO control

## CN[C@H]1CCc2cc(OC)c(OC)c(OC)c2-c2ccc(OC)c(=O)cc21 [colcemid, reference compound]
U251 glioblastoma cells [4]
  cell cycle distribution (G2/M, sub-G1/G0): significantly decreased compared to the DMSO control (p≦0.05)

## COc1ccc2[nH]c(C(F)(F)F)c(/C=C/C(=O)c3ccncc3)c2c1 [compound 124, trans-3-(5-methoxyindol-2-trifluoromethyl-3-yl)-1-(4-pyridinyl)-2-propen-1-one]
Porcine tubulin
  inhibition of tubulin polymerization: partially inhibited tubulin polymerization

## CCOC(=O)c1[nH]c2ccc(OC)cc2c1/C=C/C(=O)c1ccncc1 [compound 125, ethyl trans-3-(5-methoxyindol-2-carboxylate-3-yl)-1-(4-pyridinyl)-2-propen-1-one]
Porcine tubulin
  inhibition of tubulin polymerization: partially inhibited tubulin polymerization

## COc1ccc2[nH]c(C(=O)OC(C)C)c(/C=C/C(=O)c3ccncc3)c2c1 [compound 309, isopropyl trans-3-(5-methoxyindol-2-carboxylate-3-yl)-1-(4-pyridinyl)-2-propen-1-one]
[7]
  sensitivity to hydrolysis: most sensitive to hydrolysis during workup and subsequent manipulation or storage

## CCCCC[C@@H](O)[C@H]1C(=O)O[C@H](C)[C@@H](O)/C=C/C=C/C=C/C=C/C=C(\C)[C@@H](O)C[C@H](O)C[C@H](O)C[C@H](O)C[C@H](O)C[C@H](O)C[C@@H]1O [filipin]
U251 glioblastoma cells [6]
  effect on induction of vacuoles by MIPP: failed to show the typical morphological response to MIPP
